Test results taken from patent publication US5846545A, “Targeted delivery of cyclopropylbenzindole-containing cytotoxic drugs” (Immunogen, Inc., priority 1995, dated 1998).

Columns and labels:
[1] = single i.v. dose of 12.5 μg/kg; cited from earlier work
[2] = test system: human small cell lung cancer cell line SW2; assay: In vitro cytotoxicity to SW2 cells, 24 h exposure, growth back-extrapolation assay; format: cell-based; details: 24 h exposure to the drug, read-out: IC50, free drug, SW2 cells
Method: Disulfide-containing and mercapto-containing analogues and derivatives of CC-1065 of the invention can be evaluated for their ability to suppress proliferation of various unwanted cell lines in vitro. For example, cell lines such as the human epidermoid carcinoma line KB, the human breast tumor line SKBR3, and the Burkitt's lymphoma line Namalwa can easily be used for the assessment of cytotoxicity of these compounds. Cells to be evaluated can be exposed to the compounds for 24 hours and the surviving fractions of cells measured in direct assays by known methods. IC50 values can then be calculated from the results of the assays.
Cytotoxicity of the analogues and derivatives of CC-1065 and their conjugates with cell binding agents to non-adherent cell lines such as Namalwa and SW2 can be measured by back-extrapolation of cell proliferation curves as described in Goldmacher et al, 135 J. Immunol. […] Cytotoxicity of these compounds to adherent cell lines such as A-375 and SCaBER can be determined by clonogenic assays as described in Goldmacher et al, 102 J. Cell Biol. 1312-1319 (1986). […]
In vitro cytotoxicity of N901-SS-Drug 7. The in vitro cytotoxicity of a disulfide-linked conjugate of the mono-indolyl CPI derivative 7 with the antibody N901, containing on the average 3.3 drug molecules per antibody molecule, was measured on antigen positive SW2 cells and antigen negative Namalwa cells. […]

[3] = in vitro; cited from earlier work
[4] = test system: P388 leukemia; details: cited from earlier work

SMILES | delayed hepatotoxicity leading to death, time of death [1] | IC50 [2] | fold more cytotoxic than methotrexate, daunorubicin and vincristine [3] | treated mice surviving beyond 30 days ([4]; 0.05 mg/kg i.p. on days 1, 5 and 9) | increase in life span over untreated controls ([4]; optimal dose 0.05 mg/kg i.p. on days 1, 5 and 9)
COc1c(O)c2c(c3cc(C(=O)N4CCc5c4c(O)c(OC)c4[nH]c(C(=O)N6CC7CC78C6=CC(=O)c6[nH]cc(C)c68)cc54)[nH]c13)CCN2C(N)=O (centres unmarked) [CC-1065] | 50 days | 200 pM | 100 to 1000 fold | – | –
Cc1c[nH]c2c1[C@@]13C[C@@H]1CN(C(=O)c1cc4cc(NC(=O)c5cc6ccccc6o5)ccc4[nH]1)C3=CC2=O [U-73975] | – | – | – | 1 out of 6 | 170%
